This test deals with murine neural precursor cells (neurosphere cultures). Description: HTS of LOPAC library against secondary neurosphere cultures, MTT proliferation assay at 3 μM, day 7 (z score, P value). The test is classed as cell-based, mouse. In general terms: Formazan colour is commonly taken as a measure of viable cells.
Setting [1] is: LOPAC library screen, 3 μM, MTT, neurosphere cultures.
[2] abbreviates: LOPAC primary screen, neurosphere MTT proliferation, 3 μM, day 7.
Setting [3] is: yes/no: significantly inhibited neurosphere proliferation (P<0.01) in primary screen.
Where [4] appears, read: LOPAC library screen, 3 μM, MTT, secondary neurosphere cultures, day 7.
[5] abbreviates: primary LOPAC screen, 3 μM, MTT, neurosphere proliferation.
Setting [6] is: yes/no: significantly inhibited neurosphere proliferation (P<0.01) in the primary screen.
Where [7] appears, read: yes = significantly inhibited neurosphere proliferation (P<0.01) in the primary screen.
The mark [8] stands for this setting: LOPAC screen, neurosphere MTT proliferation, 3 μM, day 7.
[9] abbreviates: LOPAC library screen at 3 μM, secondary neurosphere cultures, MTT.
The mark [10] stands for this setting: yes/no: significantly inhibited neurosphere proliferation in primary screen.

Where a name gives a salt, the structure may show the parent alone. Read-outs that look alike come from different tables or passages of the source.

Consider `Cc1c(OCC(F)(F)F)ccnc1C[S+]([O-])c1nc2ccccc2[nH]1` (centres unmarked) [Lansoprazole], for which the “Z Score” value under setting [1] was −0.0336. Further, the Z score under setting [2] is −0.034. Under setting [3], the Activity result is “no”.
In the case of `O=C1C=CC(=O)C=C1` [p-Benzoquinone], the Activity result is listed as “no”. For the same compound, the “Z Score” value under setting [4] is reported as −1.571. In addition, the Z score under setting [5] is −1.571.
For (−)Amethopterin, the “Z Score” value under setting [4] is −8.704. Moreover, the Z score under setting [2] is −8.704. Also, the Activity result under setting [6] is “yes”.
On to `COCCc1ccc(OCC(O)CNC(C)C)cc1.O=C(O)C(O)C(O)C(=O)O` (racemic) [(±)-Metoprolol (+)-tartate], for which the Z score under setting [2] is given as −0.269. Also, the Activity entry under setting [7] is “no”.
On to `COc1ccc(-n2nc(C(F)(F)F)cc2-c2ccc(Cl)cc2)cc1` [SC-560], for which the “Z Score” value was found to be 1.113. The Z score under setting [2] stood at 1.113.
For the compound `COc1ccc2[nH]c3c(c2c1)CCNC3`, the Z score under setting [2] is recorded as −2.661. Also, the Activity result under setting [7] was “yes”.
As to `CNC(=O)[C@H]1O[C@@H](n2cnc3c(N)ncnc32)[C@H](O)[C@@H]1O` [5′-N-Methyl carboxamidoadenosine], the “Z Score” value is −2.582. Further, the Z score under setting [2] was −2.582. Besides, the Activity entry under setting [6] is listed as “yes”.
Consider `CC(C)(Oc1ccc(C2CC2(Cl)Cl)cc1)C(=O)O` (centres unmarked) [Ciprofibrate], for which the “Z Score” value under setting [4] is given as −1.326. Besides, the Z score under setting [8] is −1.326. Moreover, the Activity entry under setting [3] was “no”.
On to `O=C(Nc1cccc(C(=O)Nc2ccc(S(=O)(=O)[O-])c3cc(S(=O)(=O)[O-])cc(S(=O)(=O)[O-])c23)c1)Nc1cccc(C(=O)Nc2ccc(S(=O)(=O)[O-])c3cc(S(=O)(=O)[O-])cc(S(=O)(=O)[O-])c23)c1.[Na+].[Na+].[Na+].[Na+].[Na+].[Na+]` [NF 023], for which the “Z Score” value was determined as 1.115. Besides, the Z score under setting [2] amounted to 1.115. Under setting [7], the Activity entry was “no”.
In the case of `COc1[nH]c2ccc(F)cc2c1C(=O)OCC1CCN(CCNS(C)(=O)=O)CC1.NS(=O)(=O)O` [GR 125487 sulfamate salt], the “Z Score” value under setting [9] is −0.1942. Further, the Z score under setting [2] was −0.194. Moreover, under setting [3], the Activity result is on record as “no”.
For the compound `CC1=NN=C(c2ccc(N)cc2)c2cc3c(cc2C1)OCO3` [GYKI 52466 hydrochloride], the “Z Score” value under setting [4] is −1.864. Moreover, under setting [2], the Z score is −1.864. Also, the Activity result under setting [7] is “no”.
Turning to `O=c1c2ccccc2[se]n1-c1ccccc1` [Ebselen], under setting [9], the “Z Score” value is on record as −0.2515. Besides, the Z score under setting [2] was −0.251.
As for `N#Cc1c(-c2ccccc2)no[n+]1[O-]` [4-Phenyl-3-furoxancarbonitrile], for the setting “168 h, 3 µM”, the “Z Score” value worked out at 0.9313 and the Z score stood at 0.931. Moreover, the Activity result under setting [10] is “no”.
Regarding `Cl.c1ccc2nc(C3=NCCN3)ccc2c1` [BU224 hydrochloride], the “Z Score” value amounted to 0.4045. Under setting [8], the Z score was determined as 0.404. Moreover, the Activity entry under setting [3] was “no”.
Regarding `Cl.Cl.Cn1cnc(CCN)c1` [1-Methylbistamine dihydrochloride], the “Z Score” value is given as 0.3068.
As to `Cn1cnc([N+](=O)[O-])c1Sc1ncnc2nc[nH]c12` [Azathioprine], the “Z Score” value under setting [4] was −7.913. The Z score under setting [2] is −7.913. Further, under setting [7], the Activity result is “yes”.
As for `CC(=O)c1ccc(S(=O)(=O)NC(=O)NC2CCCCC2)cc1` [Acetohexamide], the “Z Score” value under setting [4] was −2.24. Besides, the Z score under setting [5] is −2.240. The Activity result (yes/no: significantly inhibited neurosphere proliferation in the primary screen) is given as “no”.
As for `CC1=C(/C=C/C(C)=C/C=C/C(C)=C/C(=O)O)C(C)(C)CCC1` [Retinoic acid], under setting [9], the “Z Score” value was −0.8657. In addition, under setting [2], the Z score was −0.866.
On to `OC[C@H]1O[C@@H](n2cnc3c(NCCc4ccccc4)ncnc32)[C@H](O)[C@@H]1O` [N6-2-Phenylethyladenosine], for which the “Z Score” value under setting [1] stood at 0.5312. The compound further had a Z score under setting [2] of 0.531. The Activity entry under setting [10] is on record as “no”.

The values above are taken from US8058243B2, “Method for treating a brain cancer with ifenprodil” (HSC Research and Development Limited Partnership, priority 2006, dated 2011).
